From US20250262201A1, “COMPOUNDS AND METHODS USEFUL FOR STABILIZING PHENYLALANINE HYDROXYLASE MUTATIONS” (Agios Pharmaceuticals, Inc., priority 2022, published 2025) come the findings set out here.

The target of the first experiment is T1, human PAH with the R408W mutation (Homo sapiens, UniProt P00439, R408W).
T1 construct: expressed in transfected cells
T1 sequence (P00439 1-452 R408W): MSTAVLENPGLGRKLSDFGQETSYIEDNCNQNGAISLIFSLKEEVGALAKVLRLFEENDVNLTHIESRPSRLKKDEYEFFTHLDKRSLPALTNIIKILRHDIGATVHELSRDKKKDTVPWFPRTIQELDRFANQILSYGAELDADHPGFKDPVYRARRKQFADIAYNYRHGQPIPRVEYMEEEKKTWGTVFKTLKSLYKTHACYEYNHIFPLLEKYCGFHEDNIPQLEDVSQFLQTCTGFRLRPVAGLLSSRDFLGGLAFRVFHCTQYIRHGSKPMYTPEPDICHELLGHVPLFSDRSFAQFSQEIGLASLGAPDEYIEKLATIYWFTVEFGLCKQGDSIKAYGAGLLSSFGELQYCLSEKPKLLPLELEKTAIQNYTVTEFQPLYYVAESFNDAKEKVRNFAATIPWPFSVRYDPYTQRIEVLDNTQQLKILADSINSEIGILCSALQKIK
Briefly: Cell Based Phenylalanine Flux Assay. More on the design: scale not given here.
Conditions: not given
Molecule `Cn1ncc(C(=O)N2CCc3[nH]cnc3C2c2ccc3ccccc3n2)c1C(F)F` (centres unmarked) registered an AC50 of 1 to 5 µM.

Staying with this experiment, now noted: A375 R408W cells, 24 hrs with compound, then 20 μM sepiapterin and 800 μM 13C9,15N-Phenylalanine for 4 hours; 13C-Tyrosine by LC-MS; average where tested multiple times.
For the molecule `Cc1nnc(CC(=O)N2CCc3[nH]cnc3C2c2cn3ccccc3n2)o1` (centres unmarked), the AC50 entry is given as “E, E”.
For `Cc1ocnc1CC(=O)N1CCc2[nH]cnc2C1c1cn2ccccc2n1` (centres unmarked), the AC50 entry is “E, E”.
Same read-out and setting: next, `O=C(CC1(O)CCC1)N1CCc2[nH]cnc2C1c1cn2ccccc2n1` (centres unmarked): “E, E”; `Nc1nc(C(F)(F)F)c(C(=O)N2CCc3[nH]cnc3C2c2cn3ccccc3n2)o1` (centres unmarked): “E, E”; `CC(C)(O)c1nc(C(F)(F)F)c(C(=O)N2CCc3[nH]cnc3C2c2ccc3ccccc3n2)o1` (centres unmarked): “E, E”.
Turning to `Cn1ccc(-c2nc(C(F)F)c(C(=O)N3CCc4[nH]cnc4C3c3ncc4ccccc4n3)o2)n1` (centres unmarked), the AC50 result was “E, E”.
Same read-out and setting: in the case of `CC(C)(O)c1nc(C(F)F)c(C(=O)N2CCc3[nH]cnc3C2c2ncc3ccccc3n2)o1` (centres unmarked) it was “E, E”; in that of `Cc1nc(C(=O)N2CCc3[nH]cnc3C2c2ncc3ccccc3n2)n(C)n1` (centres unmarked), “E, E”; in that of `Cn1cc(-c2nc(C(F)(F)F)c(C(=O)N3CCc4[nH]cnc4C3c3ncc4ccccc4n3)o2)cn1` (centres unmarked), “E, E”.
As for `Cn1cnc(-c2nc(C(F)F)c(C(=O)N3CCc4[nH]cnc4C3c3ncc4ccccc4n3)o2)c1` (centres unmarked), the AC50 result is “E, E”.
On the same count and under the same terms, in the case of `O=C(c1oc(-c2ncccn2)nc1C(F)F)N1CCc2[nH]cnc2C1c1ncc2ccccc2n1` (centres unmarked) it was “E, E”; in that of `O=C(c1oc(-c2ccncn2)nc1C(F)F)N1CCc2[nH]cnc2C1c1ncc2ccccc2n1` (centres unmarked), “E, E”.
On the same count and under the same terms, in the case of `O=C(c1oc(-c2cncnc2)nc1C(F)F)N1CCc2[nH]cnc2C1c1ncc2ccccc2n1` (centres unmarked) it was “E, E”.
Take `CC(C)(O)c1nc(C(F)(F)F)c(C(=O)N2CCc3[nH]cnc3C2c2ncc3ccccc3n2)o1` (centres unmarked): the AC50 result is “E, E”.
On the same count and under the same terms, next, `O=C(c1ccnn1C(F)F)N1CCc2[nH]cnc2C1c1ncc2ccccc2n1` (centres unmarked): “E, E”; `O=C(c1oc(-c2ccccn2)nc1C(F)(F)F)N1CCc2[nH]cnc2C1c1ncc2ccccc2n1` (centres unmarked): “E, E”.
`Cn1cc(-c2nc(C(F)F)c(C(=O)N3CCc4[nH]cnc4C3c3ncc4ccccc4n3)o2)cn1` (centres unmarked): the AC50 result is “E, E”.
Still for that read-out and setting: in the case of `CN1CCN(c2nc(C(F)F)c(C(=O)N3CCc4[nH]cnc4C3c3ncc4ccccc4n3)o2)CC1` (centres unmarked) it was “E, E”; in that of `O=C(c1oc(-c2ccc(F)cn2)nc1C(F)F)N1CCc2[nH]cnc2C1c1ncc2ccccc2n1` (centres unmarked), “E, E”; in that of `COc1ccc(-c2nc(C(F)F)c(C(=O)N3CCc4[nH]cnc4C3c3ncc4ccccc4n3)o2)nc1` (centres unmarked), “E, E”.
On the same count and under the same terms, next, `O=C(c1oc(-c2cnccn2)nc1C(F)F)N1CCc2[nH]cnc2C1c1ncc2ccccc2n1` (centres unmarked): “E, E”; `O=C(c1oc(-c2ccccn2)nc1C(F)F)N1CCc2[nH]cnc2C1c1ncc2ccccc2n1` (centres unmarked): “E, E”.
With `O=C(c1oc(-c2cccnc2)nc1C(F)F)N1CCc2[nH]cnc2C1c1ncc2ccccc2n1` (centres unmarked), the AC50 result is reported as “E, E”.
Regarding `O=C(c1oc(-c2ccncc2)nc1C(F)F)N1CCc2[nH]cnc2C1c1ncc2ccccc2n1` (centres unmarked), the AC50 result is on record as “E, E”.
Still for that read-out and setting: next, `O=C(c1oc(N2CCOCC2)nc1C(F)F)N1CCc2[nH]cnc2C1c1ncc2ccccc2n1` (centres unmarked): “E, E”; `O=C(c1ocnc1C(F)F)N1CCc2[nH]cnc2C1c1ncc2ccccc2n1` (centres unmarked): “E, E”.
`O=C(c1ocnc1C(F)(F)F)N1CCc2[nH]cnc2C1c1ncc2ccccc2n1` (centres unmarked): the AC50 entry is “E, E”.

The same experiment, now with this note: A375 R408W cells, 24 hrs with compound, then 20 μM sepiapterin and 800 μM 13C9,15N-Phenylalanine for 4 hours; 13C-Tyrosine by LC-MS; average where tested multiple times; read-out: AC50.
On to `O=C(c1nnc(-c2cnn(S(=O)(=O)C3CC3)c2)o1)N1CCc2[nH]cnc2[C@H]1c1cc2ccccc2cn1`, for which the AC50 is greater than 5 µM.
On the same count and under the same terms, in the case of `Cc1c(-c2nnc(C(=O)N3C[C@@H](C)c4[nH]cnc4[C@@H]3c3cc4ccccc4cn3)o2)cnn1C` it was 1 to 5 µM.
Turning to `C[C@@H]1CN(C(=O)c2nnc(C3(C)CC3)o2)[C@@H](c2cc3ccccc3cn2)c2nc[nH]c21`, the AC50 is 1 to 5 µM.
Same read-out and setting: in the case of `CC(C)(O)c1ccc2c(C(=O)N3CCc4[nH]cnc4C3c3ccc4ccccc4n3)cnn2c1` (centres unmarked) [listing 1 of 2 here] it was 1 to 5 µM; in that of `CC(C)(O)c1nc(C2CC2)c(C(=O)N2CCCc3[nH]cnc3C2c2cc3ccccc3cn2)o1` (centres unmarked), 1 to 5 µM.
As for `Cn1nc(C(=O)N2CCc3[nH]cnc3C2c2ccc3ccccc3n2)c2ccccc21` (centres unmarked), the AC50 was in the range of 1 to 5 µM.
On the same count and under the same terms, in the case of `O=C(c1n[nH]c2ccccc12)N1CCc2[nH]cnc2C1c1ccc2ccccc2n1` (centres unmarked) [listing 1 of 2 here] it was 1 to 5 µM.
Consider `O=C(c1nsc2ccccc12)N1CCc2[nH]cnc2C1c1ccc2ccccc2n1` (centres unmarked), for which the AC50 was greater than 5 µM.
As for `O=C(c1cnco1)N1CCc2[nH]cnc2C1c1ccc2ccccc2n1` (centres unmarked) [listing 1 of 2 here], the AC50 was 1 to 5 µM.
Consider `O=C(c1ocnc1-c1ccccn1)N1CCc2[nH]cnc2C1c1ccc2ccccc2n1` (centres unmarked), for which the AC50 fell in the range of 1 to 5 µM.
Same read-out and setting: in the case of `CC(C)(O)c1ncc(C(=O)N2CCc3[nH]cnc3C2c2ccc3ccccc3n2)s1` (centres unmarked) [listing 1 of 2 here] it was 1 to 5 µM; in that of `CC(C)(O)c1ncc(C(=O)N2CCc3[nH]cnc3C2c2ccc3ccccc3n2)o1` (centres unmarked), 1 to 5 µM.
On to `Cc1ncoc1C(=O)N1CCc2[nH]cnc2C1c1ccc2ccccc2n1` (centres unmarked), for which the AC50 lay within 1 to 5 µM.
As to `FC(F)c1nnc(N2CCc3[nH]cnc3C2c2ccc3ccccc3n2)o1` (centres unmarked), the AC50 was 1 to 5 µM.
On the same count and under the same terms, in the case of `Cc1nnc(C(=O)N2CCc3[nH]cnc3C2c2ccc3ccccc3n2)o1` (centres unmarked) [listing 1 of 2 here] it was 1 to 5 µM; in that of `CC(C)(F)c1ccc2c(C(=O)N3CCc4[nH]cnc4C3c3ccc4ccccc4n3)cnn2c1` (centres unmarked) [listing 1 of 2 here], 1 to 5 µM.
As for `O=C(c1ncn2ccccc12)N1CCc2[nH]cnc2C1c1ccc2ccccc2n1` (centres unmarked) [listing 1 of 2 here], the AC50 lay within 1 to 5 µM.
As for `O=C(c1cnn2ccccc12)N1CCc2[nH]cnc2C1c1ccc2ccccc2n1` (centres unmarked), the AC50 fell in the range of 1 to 5 µM.
Same read-out and setting: in the case of `O=C(c1cncs1)N1CCc2[nH]cnc2C1c1cc2ccccc2cn1` (centres unmarked) it was greater than 5 µM; in that of `Cc1nc(C(C)(C)F)oc1C(=O)N1CCc2[nH]cnc2C1c1cc2ccccc2cn1` (centres unmarked), 1 to 5 µM.
The same measure, in the same setting: in the case of `Cc1nc(C(C)(C)C)oc1C(=O)N1CCc2[nH]cnc2C1c1cc2ccccc2cn1` (centres unmarked) it was 1 to 5 µM; in that of `O=C(c1ocnc1C1CC1)N1CCCc2[nH]cnc2C1c1cc2ccccc2cn1` (centres unmarked), greater than 5 µM; in that of `Cn1cc(-c2nc(C3CC3)c(C(=O)N3CCCc4[nH]cnc4C3c3cc4ccccc4cn3)o2)cn1` (centres unmarked), 1 to 5 µM.
With `Cc1ncoc1C(=O)N1CCc2[nH]cnc2C1c1cc2ccccc2cn1` (centres unmarked), the AC50 was in the range of 1 to 5 µM.
Take `FC(F)c1nnc(N2CCc3[nH]cnc3C2c2cc3ccccc3cn2)o1` (centres unmarked): the AC50 is greater than 5 µM.
The same measure, in the same setting: next, `O=C(c1nnc(-c2ccccn2)o1)N1CCCc2[nH]cnc2C1c1cc2ccccc2cn1` (centres unmarked): 1 to 5 µM; `FC(F)(F)c1cnc(N2CCc3[nH]cnc3C2c2cc3ccccc3cn2)nc1` (centres unmarked): 1 to 5 µM; `Cc1nnc(C(=O)N2CC(C)(C)c3[nH]cnc3C2c2cc3ccccc3cn2)o1` (centres unmarked): 1 to 5 µM.
`CN(C)Cc1ccc2c(C(=O)N3CC(C)(C)c4[nH]cnc4C3c3cc4ccccc4cn3)cnn2c1` (centres unmarked): the AC50 was greater than 5 µM.
`CN(C)Cc1ccc2c(C(=O)N3CCc4[nH]cnc4C3c3ccc4ccccc4n3)cnn2c1` (centres unmarked) [listing 1 of 2 here]: the AC50 was 1 to 5 µM.
Regarding `O=C(c1ccn2ncccc12)N1CCc2[nH]cnc2C1c1ccc2ccccc2n1` (centres unmarked), the AC50 lay within 1 to 5 µM.
The same measure, in the same setting: in the case of `CC(C)(O)c1ccc2c(C(=O)N3CCc4[nH]cnc4C3c3cc4ccccc4cn3)cnn2c1` (centres unmarked) it was greater than 5 µM; in that of `CC(C)(O)c1ccc2c(C(=O)N3CCc4[nH]cnc4C3c3ccc4ccccc4n3)cnn2c1` (centres unmarked) [listing 2 of 2 here], greater than 5 µM.
Take `O=C(c1n[nH]c2ccccc12)N1CCc2[nH]cnc2C1c1ccc2ccccc2n1` (centres unmarked) [listing 2 of 2 here]: the AC50 is greater than 5 µM.
Still for that read-out and setting: next, `O=C(c1cnco1)N1CCc2[nH]cnc2C1c1ccc2ccccc2n1` (centres unmarked) [listing 2 of 2 here]: greater than 5 µM.
On the same count and under the same terms, in the case of `CC(C)(O)c1ncc(C(=O)N2CCc3[nH]cnc3C2c2cc3ccccc3cn2)o1` (centres unmarked) it was 1 to 5 µM.
Still for that read-out and setting: next, `CC(C)(O)c1ncc(C(=O)N2CCc3[nH]cnc3C2c2ccc3ccccc3n2)s1` (centres unmarked) [listing 2 of 2 here]: greater than 5 µM; `Cc1nnc(C(=O)N2CCc3[nH]cnc3C2c2ccc3ccccc3n2)o1` (centres unmarked) [listing 2 of 2 here]: greater than 5 µM; `CC(C)(F)c1ccc2c(C(=O)N3CCc4[nH]cnc4C3c3ccc4ccccc4n3)cnn2c1` (centres unmarked) [listing 2 of 2 here]: greater than 5 µM.
Regarding `O=C(c1ncn2ccccc12)N1CCc2[nH]cnc2C1c1ccc2ccccc2n1` (centres unmarked) [listing 2 of 2 here], the AC50 is greater than 5 µM.
Regarding `CN(C)Cc1ccc2c(C(=O)N3CCc4[nH]cnc4C3c3ccc4ccccc4n3)cnn2c1` (centres unmarked) [listing 2 of 2 here], the AC50 was greater than 5 µM.
With `CN(C)Cc1ccc2c(C(=O)N3CC4(CC4)c4[nH]cnc4C3c3cc4ccccc4cn3)cnn2c1` (centres unmarked), the half-maximal activity concentration (AC50) lay within 1 to 5 µM.
The same measure, in the same setting: in the case of `C[C@H](O)c1nnc(C(=O)N2CCc3[nH]cnc3[C@H]2c2cc3ccccc3cn2)o1` it was 1 to 5 µM.
Same read-out and setting: in the case of `CC1CN(C(=O)c2nnc(N3CCC(F)CC3)o2)C(c2cc3ccccc3cn2)c2nc[nH]c21` (centres unmarked) [listing 1 of 3 here] it was 1 to 5 µM; in that of `CC1CN(C(=O)c2nnc(N3CCC(F)CC3)o2)C(c2cc3ccccc3cn2)c2nc[nH]c21` (centres unmarked) [listing 2 of 3 here], 1 to 5 µM.
Same read-out and setting: in the case of `Cc1nnc(C(=O)N2CC(C)c3[nH]cnc3C2c2cc3ccccc3cn2)o1` (centres unmarked) it was 1 to 5 µM; in that of `CC1CN(C(=O)c2cnn3cc(CN(C)C)ccc23)C(c2cc3ccccc3cn2)c2nc[nH]c21` (centres unmarked), 1 to 5 µM.
In the case of `CC1CN(C(=O)c2nnc(N3CCC(F)CC3)o2)C(c2cc3ccccc3cn2)c2nc[nH]c21` (centres unmarked) [listing 3 of 3 here], the AC50 was greater than 5 µM.
Same read-out and setting: next, `COC(=O)N1CC(C(=O)N2CCc3[nH]cnc3[C@H]2c2cc3ccccc3cn2)C1`: 1 to 5 µM.
